Results as given in publication PMC9705435, “Thiocarbazate building blocks enable the construction of azapeptides for rapid development of therapeutic candidates” (Nature Communications, 2022).
Numbered stars: 1 amine (or outer) side, 2 acyl side, 3 side chain; on linkers, the order of the positions; unused ones are H or OH. Square brackets hold non-standard residues; d marks the D form. Peptide text beside a SMILES is read from it. azaPhe = O=C(N(Cc1ccccc1)N[*:1])[*:2]; azaPro = O=C(N1CCCN1[*:1])[*:2]

How the values were obtained:
murine monocytes = assay: HMGB1-stimulated TNF release in murine splenic monocytes (ELISA); type: cell-based, mouse; details: 0.1, 1 or 10 µM peptide, HMGB1 1 µg/ml, 24 h
Text: 4.2 HMGB1 protein preparation
For TNF ELISA experiments, […]

[1] = test system: STZ-induced type 1 diabetic (T1D) mice; assay: Low-dose streptozotocin (STZ)-induced type 1 diabetes in mice; details: 500 µg/mouse/day i.p.
Protocol: Data are presented as means ± SD. […] Mice were simultaneously injected i.p. with saline, FSSE (500 µg/mouse/day), or azaF^1SSazaE^4 (500 µg/mouse/day). Blood glucose was measured on day 0, 7 and 14. Number of mice per group: saline n = 7; FSSE n = 8; azaF^1SSazaE^4 n = 8. Data are presented as mean values ± SEM. […] Serum samples from mice challenged with STZ were collected at day 14 and analyzed by ELISA. n = 7 mice per group. Data are presented as mean values ± SEM. […] Number of islets per group: saline n = 3, 13 islets; FSSE n = 2, 11 islets; azaF^1SSazaE^4 n = 3, 23 islets. P-value was calculated using two-sided Fisher’s exact test to compare islets without (score 0) and with (score 1-4) insulitis. Pancreas tissue was histologically analyzed from 2–3 animals per group. Representative hematoxylin and eosin (H&E) stained images of islets from each group are shown (right panel). Scale bars, 50 μm.
given free access to water and standard rodent chow and were acclimated to their environment for at least 1 week before experimentation.
4.5 STZ-induced type 1 diabetes in mice
Induction of Diabetes T1D was induced by administration of streptozotocin (STZ) (Sigma-Aldrich) (50 mg/kg dissolved in sodium citrate buffer, pH 4.5) to 6-8 weeks old C57Bl/6J mice intraperitoneally (i.p.) once each day for 5 consecutive days.
Mice were given water supplemented with 10% sucrose (Sigma-Aldrich) for six days to prevent sudden hypoglycemia during streptozotocin administration.
of FSSE, azaF1SSazaE4 or saline. Blood glucose with either FreeStyle Lite blood glucose meter (Abbot Diabetes Care, Inc.) or Bayer Contour blood glucose meter (Bayer HealthCare, LLC.) and body weight were measured once weekly. At the end of each study, mice were euthanized by CO2 asphyxiation. Blood and pancreas were collected for further analysis.
Pancreas were fixed in 10% formalin and processed for paraffin embedding (AML Laboratory and Genecopoeia). 7-μm-thick sections were stained with hematoxylin/eosin (Genecopoeia) and the degree of insulitis was eva luated microscopically. Islets were analyzed in multiple sections at 20×.

in vitro = details: male, C57BL/6J, mouse, blood
[2] = male, C57BL/6J, mouse, blood
3T3 cells = molecular target: T1, 3T3 cells (Mus musculus, UniProt P32299); assay: PGE2 induction in 3T3 fibroblasts (ELISA); type: cell-based; details: 7 min, serum-free medium
T1 sequence (P32299 1-392): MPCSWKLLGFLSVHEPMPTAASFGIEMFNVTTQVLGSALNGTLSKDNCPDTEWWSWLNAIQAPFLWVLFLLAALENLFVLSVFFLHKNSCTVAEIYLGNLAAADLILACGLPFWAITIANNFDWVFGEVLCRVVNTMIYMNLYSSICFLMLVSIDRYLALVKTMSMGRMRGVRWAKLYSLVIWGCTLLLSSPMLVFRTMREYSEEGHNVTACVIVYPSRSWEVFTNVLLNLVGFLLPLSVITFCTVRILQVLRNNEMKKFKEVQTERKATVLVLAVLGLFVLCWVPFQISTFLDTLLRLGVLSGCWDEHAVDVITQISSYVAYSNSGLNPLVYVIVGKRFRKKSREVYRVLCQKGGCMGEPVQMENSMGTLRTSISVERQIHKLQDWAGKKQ
Protocol: Subconfluent monolayers of 3T3 cells were incubated with test compounds for 7 min in serum-free medium and supernatants were collected and analyzed for PGE2 by ELISA.
5.1 In vitro PGE2 induction
3T3 Swiss Albino cell line (ATCC CCL-92) was purchased from American Type Culture Collection (Manassas, VA).
Following trypsinization, cells were washed and resuspended in DMEM-Complete at a cell density of 0.03 x 10^6 cells per ml. Cells were seeded into 96 -well flat-bottomed culture plates (6 x 10^3 cells per well in 200 µl). After one day of culture, 3T3 cell monolayers were washed two times in pre-warmed DMEM supplemented with 20 mM HEPES (DMEM-HEPES) and DMEM-HEPES
supernatants were collected and immediately frozen at -20°C for future PGE2 analyses. PGE2 levels in supernatants were determined using PGE2 ELISA kit (Enzo Life Sciences, Farmingdale, NY) following manufacturer’s instructions. Samples were assayed in quadruplicate. PGE2 ELISA data were analyzed using GraphPad Prism Version 9.3.1.

[3] = molecular target: T2, Human B2 (h) receptor (B2R) (Homo sapiens, UniProt P30411); assay: Human B2 (h) (agonist radioligand) receptor binding assay, [3H]bradykinin displacement
T2 construct: host or cells: CHO cells
T2 sequence (P30411 1-391): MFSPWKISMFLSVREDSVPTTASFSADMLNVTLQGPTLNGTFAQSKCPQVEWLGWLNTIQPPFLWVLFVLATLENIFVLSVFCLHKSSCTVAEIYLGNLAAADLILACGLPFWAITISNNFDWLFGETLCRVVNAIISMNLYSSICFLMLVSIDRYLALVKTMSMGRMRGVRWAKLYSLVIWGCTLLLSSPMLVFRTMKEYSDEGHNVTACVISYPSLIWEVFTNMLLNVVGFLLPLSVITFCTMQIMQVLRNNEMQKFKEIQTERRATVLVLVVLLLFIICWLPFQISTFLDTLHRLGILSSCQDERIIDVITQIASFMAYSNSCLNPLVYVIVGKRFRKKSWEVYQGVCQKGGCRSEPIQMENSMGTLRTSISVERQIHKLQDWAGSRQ
Text: The data was collected by CRO Eurofins Cerep (France) and the result is attached as an additional data file. B2R radioligand agonist binding displacement assay for determination of IC-50.
Test compounds (FI-U / [azaP2, azaF8-BK (70), FI-2V / azaF8-BK (68), and FI-8G / azaP2-BK (63)) were supplied to Eurofins in a blinded manner and run at five concentrations to determine the IC-50’s. Standard company control test compounds were used for assay validation. Experimental assays achieved inhibition of more than 50% and were considered to represent significant effects of the test compounds.
(B2(h)) was used as the agonist for B2R receptor binding. The results are expressed as a percent of control specific binding (measured specific binding /control specific binding)*100, and as a percent inhibition of control specific binding (100 minus (measured specific binding/ control specific binding)*100) obtained in the presence of the test compounds. The IC50 values (concentration causing a half-maximal inhibition of control specific binding) and Hill coefficients (nH) were determined by non-linear regression analysis of the competition curves generated with mean replicate values using Hill equation curve fitting Y=D+[ A-D / 1+(C/C50) nH] where Y = specific binding, A = left asymptote of the curve, D = right asymptote of the curve, C = compound concentration, C50 = IC50, and nH = slope factor. This analysis was performed using software developed at Cerep (Hill software) and validated by comparison with data generated by the commercial software SigmaPlot® 4.0 for […]
The inhibition constants (Ki) were calculated using the Cheng Prusoff equation. Ki=IC50/(1+L/Kd) where L = concentration of radioligand in the assay, and Kd = affinity of the radioligand for the receptor. A scatchard plot is used to determine the Kd. […]
9.1. Experimental Conditions
9.1.1. In Vitro Pharmacology: Binding Assays
Assay Source Ligand Conc. Kd Non Specific Incubation Detection Bibl.
(agonist recombinant (1 µM) RT counting
9.2. Analysis and expression of results
9.2.1. In Vitro Pharmacology: Binding Assays
The results are expressed as a percent of control specific binding measured specific binding *100 […]
and as a percent inhibition of control specific binding
100-( measured specific binding *100) […]
obtained in the presence of the test compounds.
The IC50 values (concentration causing a half-maximal inhibition of control specific binding) and Hill coefficients (nH) were determined by non-linear regression analysis of the competition curves generated with mean replicate values using Hill equation […]
where Y = specific binding, A = left asymptote of the curve, D = right asymptote of the curve, C = compound concentration, C50 = IC50, and nH = slope factor. This analysis was performed using software developed at Cerep (Hill software) and validated by […]
The inhibition constants (Ki ) were calculated using the Cheng Prusoff equation where L = concentration of radioligand in the assay, and KD = affinity of the radioligand for the receptor. A scatchard plot is used to […]

| SMILES | EC50 (3T3 cells) | half-life (in vitro) | IC50 [3] | Ki [3] | % Inhibition of Control Specific Binding, 1st ([3]; 1.0E-06 M) | % Inhibition of Control Specific Binding, 2nd ([3]; 1.0E-06 M) | % Inhibition of Control Specific Binding, Mean ([3]; 1.0E-06 M) | % Inhibition of Control Specific Binding, 1st ([3]; 1.0E-07 M) | % Inhibition of Control Specific Binding, 2nd ([3]; 1.0E-07 M) | % Inhibition of Control Specific Binding, Mean ([3]; 1.0E-07 M) | % Inhibition of Control Specific Binding, 1st ([3]; 1.0E-08 M) | % Inhibition of Control Specific Binding, 2nd ([3]; 1.0E-08 M) | % Inhibition of Control Specific Binding, Mean ([3]; 1.0E-08 M) | % Inhibition of Control Specific Binding, 1st ([3]; 1.0E-09 M) | % Inhibition of Control Specific Binding, 2nd ([3]; 1.0E-09 M) | % Inhibition of Control Specific Binding, Mean ([3]; 1.0E-09 M) | % Inhibition of Control Specific Binding, 1st ([3]; 3.0E-08 M) | % Inhibition of Control Specific Binding, 2nd ([3]; 3.0E-08 M) | % Inhibition of Control Specific Binding, Mean ([3]; 3.0E-08 M) | also measured |
| --- | --- | --- | --- | --- | --- | --- | --- | --- | --- | --- | --- | --- | --- | --- | --- | --- | --- | --- | --- | --- |
| NC(=O)[C@H](CCC(=O)O)NC(=O)[C@H](CO)NC(=O)[C@H](CO)NC(=O)[C@@H](N)Cc1ccccc1 [FSSE-NH2 (P5779), FSSE-NH2, reference compound] | – | – | – | – | – | – | – | – | – | – | – | – | – | – | – | – | – | – | – | HMGB1-induced TNF production (murine monocytes): dose-dependently reduced; severity of insulitis (insulitis scores) ([1]; 2 weeks of treatment, H&E): reduced; development of hyperglycemia ([1]; vs diabetic (saline) group): no significant effect; half-life (in vitro; Ex-vivo stability t 1/2): < 2 min; Ex-vivo stability t 1/2 [2]: 2.0 ± 0.06 min |
| N=C(N)NCCC[C@H](NC(=O)[C@H](Cc1ccccc1)NC(=O)[C@@H]1CCCN1C(=O)[C@H](CO)NC(=O)[C@H](Cc1ccccc1)NC(=O)CNC(=O)[C@@H]1CCCN1C(=O)N1CCCN1C(=O)[C@@H](N)CCCNC(=N)N)C(=O)O [Compound 63, RazaP^2PGFSPFR] (H-R[azaPro]PGFSPFR-OH; N-terminus and C-terminus assumed) | 61.1 nM | 5.4 ± 1.1 min | 7.9 nM | 4.5 nM | 98.9% | 98.6% | 98.8% | 94.6% | 95.1% | 94.9% | 58.5% | 56.4% | 57.4% | 0.2% | -3.4% | -1.6% | 86.3% | 63.9% | 75.1% | – |
| N=C(N)NCCC[C@H](NC(=O)N(Cc1ccccc1)NC(=O)[C@@H]1CCCN1C(=O)[C@H](CO)NC(=O)[C@H](Cc1ccccc1)NC(=O)CNC(=O)[C@@H]1CCCN1C(=O)N1CCCN1C(=O)[C@@H](N)CCCNC(=N)N)C(=O)O [Compound 70, RazaP^2PGFSPazaF^8R] (H-R[azaPro]PGFSP[azaPhe]R-OH; N-terminus and C-terminus assumed) | 80.6 nM | 29.2 ± 3.8 min | 11 nM | 5.6 nM | 97.1% | 99.5% | 98.3% | 84.7% | 91.4% | 88.1% | 36.3% | 48.4% | 42.3% | -9.2% | 8.0% | -0.6% | 67.6% | 73.7% | 70.6% | – |
